SMILES strings stand for the structures. ≈ marks a conversion by molar mass, not a printed value. Where two headings read alike, the source gives them in different places.

One assay deals with Escherichia coli No. 29. Put plainly: in vivo antibacterial activity (ED50) in mice challenged intraperitoneally with E. coli No. 29. Further details: species or system Escherichia coli No. 29; Male ddY mice. Particulars: male ddY mice, fatality over a week, Probit method.
Assay [1] relates to Staphylococcus aureus 209p. Put plainly: MIC, minimum inhibitory concentration (nutrient agar, 37° C., 20 hours). The class given is cell-based.
The test system of assay [2] is Bacillus anthracis No. 119. The assay can be described thus: microbe, parasite or virus in culture. In kind it is cell-based. The conditions noted are these: NO.119, 20 h, read-out: MIC (minimum inhibitory concentration).
In another assay the test system is Escherichia coli 255. The assay can be described thus: MIC, minimum inhibitory concentration (nutrient agar, 37° C., 20 hours). The class given is cell-based.
Another assay relates to Citrobacter freundii. The description is as above. In kind it is cell-based.
Another assay concerns Klebsiella pneumoniae. The description is as above. The conditions noted are these: read-out: MIC (minimum inhibitory concentration). In kind it is cell-based.
The subject of another assay is Proteus morganii. The assay is described as above. The class given is cell-based. The conditions noted are these: Morganella morganii.
In assay [3] the test system is Serratia marcescens No. 1. The description is as above. In kind it is cell-based. The conditions noted are these: read-out: MIC (minimum inhibitory concentration).
Assay [4] concerns Pseudomonas aeruginosa IFO 3080. The assay is described as above. The class given is cell-based. The conditions noted are these: IFO3080.
[5] abbreviates: Serratia marcescens No. 1, 37° C., 20 hours.

With `COC(=O)C(N)CSCC(=O)NC1(OC)C(=O)N2C(C(=O)OC(C)OC(C)=O)=C(CSc3nnnn3C)CSC21` (stereo not drawn) [Example 18, 1-acetoxyethyl 7β-(2D-2-amino-2-methoxycarbonyl)ethylthioacetamido-7α-methoxy-3-(1-methyl-1H-tetrazol-5-yl)thiomethyl-3-cephem-4-carboxylate], the “ED50 with Escherichia coli No. 29” value in the assay with Escherichia coli No. 29 (oral) turned out to be 0.36 mg/mouse; with Escherichia coli No. 29 (subcutaneous), 0.24 mg/mouse.

With `CO[C@@]1(NC(=O)Cc2cccs2)C(=O)N2C(C(=O)O)=C(COC(N)=O)CS[C@@H]21` [Cefoxitin, cefoxitin, reference compound], the MIC in [1] was 1.56 mg/L (≈ 3.65 µM); in assay [2], 3.13 mg/L (≈ 7.32 µM); against Escherichia coli 255, 50 mg/L (≈ 117 µM); with Citrobacter freundii it was 50 mg/L (≈ 117 µM); in the assay with Klebsiella pneumoniae (20 h), 3.13 mg/L (≈ 7.32 µM); in the assay on Proteus morganii it was 6.25 mg/L (≈ 14.6 µM). The MIC in assay [3] (Serratia marcescens, NO.1, 20 h) was determined as 3.13 mg/L (≈ 7.32 µM); in assay [4], 100 mg/L (≈ 234 µM). Moreover, the “ED50 with Escherichia coli No. 29” value in the assay on Escherichia coli No. 29 (oral) was more than 5.0 mg/mouse; in the assay on Escherichia coli No. 29 (subcutaneous) it was 0.43 mg/mouse.

As for `COC1(NC(=O)CSCCC(N)C(=O)O)C(=O)N2C(C(=O)O)=C(CSc3nnnn3C)CSC21` (stereo not drawn) [Ex. 11, sodium 7β-(3D-3-amino-3-carboxy)propylthioacetamido-7α-methoxy-3-(1-methyl-1H-tetrazol-5-yl)thiomethyl-3-cephem-4-carboxylate], the MIC in assay [1] came out at 3.13 mg/L; in assay [2] it was 0.2 mg/L; against Escherichia coli 255, 0.78 mg/L; against Citrobacter freundii, 25 mg/L; with Klebsiella pneumoniae (37° C., 20 hours), 1.56 mg/L; in the assay with Proteus morganii, 3.13 mg/L. The MIC in assay [3] (setting [5]) came out at 0.78 mg/L; in [4] it was 100 mg/L.

Turning to `CC1=C(C(=O)O)N2C(=O)[C@@H](NC(=O)[C@H](N)c3ccccc3)[C@H]2SC1` [Cephalexin, cephalexin, reference compound], the “ED50 with Escherichia coli No. 29” value in the assay with Escherichia coli No. 29 (oral) is 1.60 mg/mouse.

For the molecule `COC1(NC(=O)CSCCC(N)C(=O)O)C(=O)N2C(C(=O)[O-])=C(C[n+]3ccc(C(N)=O)cc3)CSC21` (stereo not drawn) [Ex. 12, 7β-(3DL-3-amino-carboxy)propylthioacetamido-7α-methoxy-3-(p-carbamoylpyridinium)methyl-3-cephem-4-carboxylic acid], the MIC in assay [1] was 6.25 mg/L (≈ 11.6 µM); in assay [2], 1.56 mg/L (≈ 2.89 µM); with Escherichia coli 255, 3.13 mg/L (≈ 5.8 µM); in the assay on Citrobacter freundii, 25 mg/L (≈ 46.3 µM); with Klebsiella pneumoniae (37° C., 20 hours), 6.25 mg/L (≈ 11.6 µM); with Proteus morganii, 12.5 mg/L (≈ 23.2 µM). The values for the MIC in [3] (setting [5]) and in [4] were 12.5 mg/L (≈ 23.2 µM) and 6.25 mg/L (≈ 11.6 µM), respectively.

Take `COC1(NC(=O)CSCC(N)C(=O)O)C(=O)N2C(C(=O)OC(C)OC(=O)C(C)(C)C)=C(CSc3nnnn3C)CSC21` (stereo not drawn) [Example 19, 1-pivaloyloxyethyl 7β-(2D-2-amino-2-carboxy)ethylthioacetamido-7α-methoxy-3-(1-methyl-1H-tetrazol-5-yl)thiomethyl-3-cephem-4-carboxylate]: the “ED50 with Escherichia coli No. 29” value in the assay on Escherichia coli No. 29 (oral) was found to be 0.25 mg/mouse; in the assay on Escherichia coli No. 29 (subcutaneous) it was 0.17 mg/mouse.

Turning to `CCOC(=O)C(N)CSCC(=O)NC1(OC)C(=O)N2C(C(=O)OCOC(=O)C(C)(C)C)=C(CSc3nnnn3C)CSC21` (stereo not drawn) [Example 17, pivaloyloxymethyl 7β-(2D-2-amino-2-ethoxycarbonyl)ethylthioacetamido-7α-methoxy-3-(1-methyl-1H-tetrazol-5-yl)thiomethyl-3-cephem-4-carboxylate], the entries for the “ED50 with Escherichia coli No. 29” value in the assay with Escherichia coli No. 29 (oral) and in the assay with Escherichia coli No. 29 (subcutaneous) were 0.86 mg/mouse and 0.046 mg/mouse, respectively.

As to `COC1(NC(=O)CSCCNC(N)=O)C(=O)N2C(C(=O)O)=C(CSc3nnnn3C)CSC21` (stereo not drawn) [Ex. 2, 7β-ureidoethylthioacetamido-7α-methoxy-3-(1-methyl-1H-tetrazol-5-yl)thiomethyl-3-cephem-4-carboxylic acid], the MIC in assay [1] was 3.13 mg/L (≈ 6.04 µM); in [2], 0.78 mg/L (≈ 1.5 µM); in the assay on Escherichia coli 255, 12.5 mg/L (≈ 24.1 µM); in the assay with Citrobacter freundii, 25 mg/L (≈ 48.2 µM); with Klebsiella pneumoniae (37° C., 20 hours) it was 1.56 mg/L (≈ 3.01 µM); with Proteus morganii it was 3.13 mg/L (≈ 6.04 µM). Besides, the MIC in assay [3] (setting [5]) was found to be 3.13 mg/L (≈ 6.04 µM); in assay [4] it was 25 mg/L (≈ 48.2 µM).

As to `COC1(NC(=O)CSCCN)C(=O)N2C(C(=O)O)=C(CSc3nnnn3C)CSC21` (stereo not drawn) [Ex. 1, 7β-aminoethylthioacetamido-7α-methoxy-3-(1-methyl-1H-tetrazol-5-yl)thiomethyl-3-cephem-4-carboxylic acid], the MIC in assay [1] came to 1.56 mg/L (≈ 3.28 µM); in assay [2], 0.39 mg/L (≈ 0.82 µM); with Escherichia coli 255 it was 6.25 mg/L (≈ 13.1 µM); against Citrobacter freundii, 1.56 mg/L (≈ 3.28 µM); in the assay with Klebsiella pneumoniae (37° C., 20 hours), 3.13 mg/L (≈ 6.58 µM); against Proteus morganii it was 6.25 mg/L (≈ 13.1 µM). Further, the MIC worked out at 3.13 mg/L (≈ 6.58 µM) in assay [3] (setting [5]) and 25 mg/L (≈ 52.6 µM) in assay [4].

The record behind these values is patent US4357331A, “7αMethoxycephalosporin derivatives” (Meiji Seika Kaisha, Ltd., priority 1978, dated 1982).
